Results: patent publication US9931327B2, “Derivatives of 1-phenyl-2-pyridinyl alkyl alcohols as phosphodiesterase inhibitors” (Chiesi Farmaceutici S.p.A., priority 2011, dated 2018)

tested on: LPS-induced TNF-α release in peripheral blood mononuclear cells (PBMCs); test: In vitro determination of PDE4 inhibitory activity in the PBMCs assay (LPS-induced TNF-α release); assay type: cell-based, human; details: PBMC; human PBMCs, LPS 3 ng/ml, 18 hours, TNF-α by ELISA; read-out: PDE4 inhibition (IC50, 50% inhibition of LPS-induced TNF-α release)
Procedure, shortened: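 Cryopreserved human PBMCs (10^5 cells/well) pre-incubated 30 min with compound (10^−12 to 10^−6 M or 10^−3 to 10^−7 M), then stimulated with LPS 3 ng/ml for 18 h at 37 °C. TNF-α in medium by ELISA; IC50 as mean ± 95% confidence limits.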

SMILES | IC50 [pM]
COc1ccc(S(=O)(=O)N2CCSC2C(=O)O[C@@H](Cc2c(Cl)c[n+]([O-])cc2Cl)c2ccc(OC(F)F)c(OCC3CC3)c2)cc1C(=O)N1CCOCC1 (stereo partly drawn) [Compound 128, 3,5-dichloro-4-((2S)-2-(3-(cyclopropylmethoxy)-4-(difluoromethoxy)phenyl)-2-(3-(4-methoxy-3-(morpholine-4-carbonyl)phenylsulfonyl)thiazolidine-2-carbonyloxy)ethyl)pyridine 1-oxide] | < 100
COc1ccc(S(=O)(=O)N2CCCC[C@H]2C(=O)O[C@@H](Cc2c(Cl)c[n+]([O-])cc2Cl)c2ccc(OC(F)F)c(OCC3CC3)c2)cc1C(=O)N(C)C [Compound 129, 3,5-dichloro-4-((S)-2-(3-(cyclopropylmethoxy)-4-(difluoromethoxy)phenyl)-2-((S)-1-(3-(dimethylcarbamoyl)-4-methoxyphenylsulfonyl)piperidine-2-carbonyloxy)ethyl)pyridine 1-oxide] | < 100
CN1CCN(C(=O)c2cccc(S(=O)(=O)N3CCSC3C(=O)O[C@@H](Cc3c(Cl)c[n+]([O-])cc3Cl)c3ccc(OC(F)F)c(OCC4CC4)c3)c2)CC1 (stereo partly drawn) [Compound 130, 3,5-dichloro-4-((2S)-2-(3-(cyclopropylmethoxy)-4-(difluoromethoxy)phenyl)-2-(3-(3-(4-methylpiperazine-1-carbonyl)phenylsulfonyl)thiazolidine-2-carbonyloxy)ethyl)pyridine 1-oxide] | < 100
COc1ccc(S(=O)(=O)N2CCS[C@H]2C(=O)O[C@@H](Cc2c(Cl)c[n+]([O-])cc2Cl)c2ccc(OC(F)F)c(OCC3CC3)c2)cc1C(=O)N(C)C [Compound 131, 3,5-dichloro-4-((S)-2-(3-(cyclopropylmethoxy)-4-(difluoromethoxy)phenyl)-2-((S)-3-(3-(dimethylcarbamoyl)-4-methoxyphenylsulfonyl)thiazolidine-2-carbonyloxy)ethyl)pyridine 1-oxide] | < 100
CN1CCN(C(=O)c2cccc(S(=O)(=O)N3CCS[C@H]3C(=O)O[C@@H](Cc3c(Cl)c[n+]([O-])cc3Cl)c3ccc(OC(F)F)c(OCC4CC4)c3)c2)CC1 [Compound 132, 3,5-dichloro-4-((S)-2-(3-(cyclopropylmethoxy)-4-(difluoromethoxy)phenyl)-2-((S)-3-(3-(4-methylpiperazine-1-carbonyl)phenylsulfonyl)thiazolidine-2-carbonyloxy)ethyl)pyridine 1-oxide] | < 100
Nc1ccc(S(=O)(=O)N2CCSC2C(=O)O[C@@H](Cc2c(Cl)c[n+]([O-])cc2Cl)c2ccc(OC(F)F)c(OCC3CC3)c2)cc1 (stereo partly drawn) [Compound 135, 4-((2S)-2-(3-(4-aminophenylsulfonyl)thiazolidine-2-carbonyloxy)-2-(3-(cyclopropylmethoxy)-4-(difluoromethoxy)phenyl)ethyl)-3,5-dichloropyridine 1-oxide] | 100 to 1000
Nc1ccc(S(=O)(=O)N2CCC[C@H]2C(=O)O[C@@H](Cc2c(Cl)c[n+]([O-])cc2Cl)c2ccc(OC(F)F)c(OCC3CC3)c2)cc1 [Compound 136, 4-((S)-2-((S)-1-(4-aminophenylsulfonyl)pyrrolidine-2-carbonyloxy)-2-(3-(cyclopropylmethoxy)-4-(difluoromethoxy)phenyl)ethyl)-3,5-dichloropyridine 1-oxide] | 100 to 1000
COc1ccc(S(=O)(=O)N2CCSC2C(=O)O[C@@H](Cc2c(Cl)c[n+]([O-])cc2Cl)c2ccc(OC(F)F)c(OCC3CC3)c2)cc1N (stereo partly drawn) [Compound 137, 4-((2S)-2-(3-(3-amino-4-methoxyphenylsulfonyl)thiazolidine-2-carbonyloxy)-2-(3-(cyclopropylmethoxy)-4-(difluoromethoxy)phenyl)ethyl)-3,5-dichloropyridine 1-oxide] | 100 to 1000
Nc1ccc(S(=O)(=O)N2CSC[C@H]2C(=O)O[C@@H](Cc2c(Cl)c[n+]([O-])cc2Cl)c2ccc(OC(F)F)c(OCC3CC3)c2)cc1 [Compound 138, 4-((S)-2-((R)-3-(4-aminophenylsulfonyl)thiazolidine-4-carbonyloxy)-2-(3-(cyclopropylmethoxy)-4-(difluoromethoxy)phenyl)ethyl)-3,5-dichloropyridine 1-oxide] | 100 to 1000
